{
  "source": "patent US10114018B2",
  "about": "“IL-2 peptide derivatives, and uses thereof for the diagnosis and treatment of an autoimmune disease” (INSERM (INSTITUT NATIONAL DE LA SANTÉ ET DE LA RECHERCHE …, priority 2014, dated 2018)",
  "tested_on": "PBMCs from HD or T1D patients",
  "assay": "Quantification of IL-2 specific T cells by IFN-g ELISPOT",
  "format": "cell-based, human",
  "conditions": "peptides 10 μM/each; T1D patients (n=13) vs HD (n=14) PBMCs",
  "description": "IFN-g production by PBMCs from HD (n=14, closed circles) or T1D patients (n=13, open circles) was quantified by ELISPOT after stimulation with hIL-2 or Proleukin (Pro) peptides (10 μM/each) that gave a positive response in the initial pool screening, intracellular IA-2, adenovirus lysate (AdV) or PHA.",
  "data": [
    {"sequence": "EFLNRWITFSQSIIS (Synthetic fragment) [Pro116-130]", "values": [
      {"measurement": "IFN-g production by PBMCs (ELISPOT, IFN-g spot-forming cells/10^6 PBMCs)", "value": "can induce IFN-g production in a significantly higher frequency of T1D PBMCs compared to HD PBMCs"}
    ]}
  ]
}
